Data reported in patent US20220363662A1, “COMPOUNDS AS LXR AGONISTS” (Integral Biosciences Privated Limited, priority 2021, published 2022).

Key:
MCF7 = test: Cell viability assay (resazurin) in MCF7; type: cell-based; conditions: Homo sapiens, 96 hr exposure
Method: HepG2 (ATCC® HB-8065™), hepatocellular carcinoma, A549 (ATCC® CCL-185™), lung epithelial carcinoma, MCF7 (ATCC® HTB-22™), mammary gland epithelial carcinoma, MDA-MB-231 (ATCC® HTB-26™), TNBC, MiaPaCa-2 (ATCC® CRL-1420™) & Panc-1 (ATCC® CRL-1469™), pancreatic epithelial carcinoma, HCT116 (ATCC® CCL-247™), colon epithelial carcinoma and U87MG (ATCC® HTB-14™), brain epithelial carcinoma cell lines respectively were seeded in the respective medium (DMEM, Cat #10569044 with 10% FBS, Cat #16000044; Gibco for HepG2, A549, MCF7, MDA-MB-231, MiaPaCa-2, Panc-1, HCT116 and MEM, Cat #11095080 with 10% FBS for U87MG). Cells were allowed to grow at 37° C. for 24 hr in 5% CO2 (culture conditions) in a Nuaire incubator (humidified). Serially diluted compounds (100 μl) were added to the culture plate 24 hr later and the cultures were further incubated in culture conditions for 96 hr. Experiment was terminated at the completion of 96 hr exposure to the drug by replacing the medium with 100 μl of 1 mM of resazurin (R7017; Sigma) prepared in culture medium and the plates were further incubated in culture conditions for 4 hr. Fluorescence was then measured using a multimodal plate reader (Biotek Synergy Neo) at an excitation wavelength of 535 nm and emission wavelength of 590 nm to obtain relative fluorescence units. Data analysis was done by subtracting the background fluorescence (only medium blank) value from each reading and then normalizing with the vehicle control (DMSO treated cells) to obtain percent survival/proliferation. Percent survival at different doses was used to calculate IC50 by fitting the curve to the “four-parameter variable slope logistic model” using Prism Graph Pad.

MiaPaCa-2 = test: Cell viability assay (resazurin) in MiaPaCa-2; type: cell-based; conditions: Homo sapiens, MIA PaCa-2; 96 hr exposure
Method: (§1) HepG2 (ATCC® HB-8065™), hepatocellular carcinoma, A549 (ATCC® CCL-185™), lung epithelial carcinoma, MCF7 (ATCC® HTB-22™), mammary gland epithelial carcinoma, MDA-MB-231 (ATCC® HTB-26™), TNBC, MiaPaCa-2 (ATCC® CRL-1420™) & Panc-1 (ATCC® CRL-1469™), pancreatic epithelial carcinoma, HCT116 (ATCC® CCL-247™), colon epithelial carcinoma and U87MG (ATCC® HTB-14™), brain epithelial carcinoma cell lines respectively were seeded in the respective medium (DMEM, Cat #10569044 with 10% FBS, Cat #16000044; Gibco for HepG2, A549, MCF7, MDA-MB-231, MiaPaCa-2, Panc-1, HCT116 and MEM, Cat #11095080 with 10% FBS for U87MG). Cells were allowed to grow at 37° C. for 24 hr in 5% CO2 (culture conditions) in a Nuaire incubator (humidified). Serially diluted compounds (100 μl) were added to the culture plate 24 hr later and the cultures were further incubated in culture conditions for 96 hr. […] Fluorescence was then measured using a multimodal plate reader (Biotek Synergy Neo) at an excitation wavelength of 535 nm and emission wavelength of 590 nm to obtain relative fluorescence units. Data analysis was done by subtracting the background fluorescence (only medium blank) value from each reading and then normalizing with the vehicle control (DMSO treated cells) to obtain percent survival/proliferation. […]

U87MG = test: Cell viability assay (resazurin) in U87MG; type: cell-based; conditions: Homo sapiens, U-87 MG; 96 hr exposure
Method: as §1

A549 = test: Cell viability assay (resazurin) in A549; type: cell-based; conditions: Homo sapiens, 96 hr exposure
Method in brief: (§2)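 Cells in 10% FBS medium (DMEM; MEM for U87MG) exposed 96 h at 37 °C to serially diluted compound, then 4 h with resazurin (1 mM in medium). Fluorescence (ex 535/em 590 nm) background-subtracted, normalised to DMSO; IC50 by four-parameter variable-slope fit.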

LXR beta = target: T1, LXR beta (Homo sapiens, UniProt P55055); test: LXR beta agonist assay (Lanthascreen TR-FRET); type: biochemical; conditions: LXR beta-LBD 5 nM, read-out: LXR-β EC50
T1 construct: 5 μL of 4×LXR beta-LBD was added to each well (final concentration 5 nM); purchased Thermofisher PV4658
T1 sequence (P55055 222-460 limits assumed): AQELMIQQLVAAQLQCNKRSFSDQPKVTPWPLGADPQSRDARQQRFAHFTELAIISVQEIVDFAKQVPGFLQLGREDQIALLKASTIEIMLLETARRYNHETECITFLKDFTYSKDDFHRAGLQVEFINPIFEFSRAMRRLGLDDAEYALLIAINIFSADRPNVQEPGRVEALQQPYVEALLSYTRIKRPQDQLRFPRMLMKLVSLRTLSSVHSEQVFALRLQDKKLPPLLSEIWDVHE
Method in brief: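 TR-FRET coactivator recruitment: 5 nM LXR beta-LBD with 100 nM Fl-D22 peptide and 10 nM Tb-anti-GST antibody (final) in Coregulator Buffer G, 60 min at 22° C, read hourly up to 4 hours. Duplicate three-fold titrations from 30 μM; EC50 by variable-slope nonlinear regression.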

MDA-MB-231 = test: Cell viability assay (resazurin) in MDA-MB-231; type: cell-based; conditions: Homo sapiens, 96 hr exposure, read-out: MDA_MB-231 Cell IC50
Method in brief: as §2

HepG2 = test: Cell viability assay (resazurin) in HepG2; type: cell-based; conditions: Homo sapiens, 96 hr exposure
Method in brief: as §2

mouse splenocytes [1] = test: Mouse splenocyte assay, cytokine release (mIFN-γ ELISA); type: cell-based; conditions: Balb/c splenocytes, CD3e/CD28 and PMA+Ionomycin induced, read-out: Enhancement of mIFN-γ release by activated Mouse Splenocyte, EC50
Method: EC50 values of compounds for enhancement of CD3e/CD28 induced mIFNγ release in mouse splenocytes isolated from Balb/c mice and differentiated (Treg) with PMA+Ionomycin. Mouse splenocytes (2*10^5 cells/well) were activated with Anti-mouse CD3e (0.5 μg/mL, coated overnight at 4° C.; Cat #14-0032-82, eBioscience) and then incubated with Anti-mouse CD28 (1 μg/mL soluble; Cat #16-0289-81, eBiosciences). After 48 hr of incubation serial dilutions of compounds (3 fold, 8 point dose response starting at 1 μM) were left for 6-8 hrs at cell culture conditions and then splenocytes were further incubated with PMA (50 ng/mL final concentration) and 1 μg/mL of Ionomycin (final concentration) and incubated under cell culture conditions overnight after which the supernatant was harvested, diluted to 1:50 and ELISA was performed as per the manufacturer's protocol (mIFN-γ kit; Cat #555138 & 550534, BD Biosciences). Plates were read in Biotek plate reader by measuring absorbance at 450 nm.

mouse splenocytes [2] = test: Mouse splenocytes cytotoxicity assay (CTG); type: cell-based; conditions: Splenocyte, CD3e/CD28 activated Balb/c splenocytes, 72 hr
Method: IC50 values to look at cytotoxicity of compounds on CD3e/CD28 induced splenocytes, was determined in mouse splenocytes isolated from Balb/c mice. Mouse splenocytes (2.5×10^5 cells/well/160 μl) were activated with Anti-mouse CD3e (0.5 μg/mL, coated overnight at 4° C.; Cat #14-0032-82, eBiosciences) and then incubated with serial dilutions of compounds (3 fold, 8 point dose response starting at 30 μM) and treated with Anti-mouse CD28 (1 μg/mL soluble; Cat #16-0289-81, eBiosciences). Splenocytes were further incubated under cell culture conditions for 72 hr after which assay was terminated by addition of CTG. Plate was incubated for 15 min at 37° C., 5% CO2 and luminescence was measured.

For `CN(C)C(=O)c1ccc(NC2CN(C3CCN(C(=O)C(O)(c4ccccc4)C(F)(F)F)CC3)C2)cc1Cl` (stereo not shown) [Compound 1.3, 2-chloro-N,N-dimethyl-4-(1-(1-(3,3,3-trifluoro-2-hydroxy-2-phenylpropanoyl)piperidin-4-yl)azetidin-3-ylamino)benzamide], the IC50 (MCF7) was > 25.7 µM, the IC50 (MiaPaCa-2) was > 30 µM and the IC50 (U87MG) was > 30 µM. For the same molecule, the IC50 (A549) was > 30 µM, the EC50 (LXR beta) was 1.12 µM and the IC50 (MDA-MB-231) was > 30 µM. It also gave an IC50 (HepG2) of 13.8 µM.

For `CN(C)C(=O)c1ccc(N2CCN(C3CC4(C3)CN(C(=O)C(O)(c3ccccc3)C(F)(F)F)C4)CC2)cc1Cl` (stereo not shown) [Compound 1.4, 2-chloro-N,N-dimethyl-4-(4-(2-(3,3,3-trifluoro-2-hydroxy-2-phenylpropanoyl)-2-azaspiro[3.3]heptan-6-yl)piperazin-1-yl)benzamide], the IC50 (MCF7) was > 30 µM, the IC50 (MiaPaCa-2) was > 30 µM and the IC50 (U87MG) was > 30 µM. The IC50 (A549) was > 30 µM, the EC50 (LXR beta) was 0.45 µM and the IC50 (MDA-MB-231) was > 30 µM. For the same molecule, the IC50 (HepG2) was > 30 µM.

`O=c1[nH]ccc2cc(N3CCC(C4CCN(S(=O)(=O)c5ccccc5C(F)(F)F)CC4)CC3)cc(Cl)c12` [Compound 1.14, 8-chloro-6-(1′-(2-(trifluoromethyl)phenylsulfonyl)-4,4′-bipiperidin-1-yl)isoquinolin-1(2H)-one] gave an EC50 (mouse splenocytes [1]) of 0.05 µM, an IC50 (mouse splenocytes [2]) of 22.9 µM and an EC50 (LXR beta) of 2.51 µM.

For `CC(C)(C(=O)N1CCC(N2CCN(c3cc(Cl)c4c(=O)[nH]ccc4c3)CC2)CC1)C(F)(F)F` [Compound 1.21, 8-chloro-6-(4-(1-(3,3,3-trifluoro-2,2-dimethylpropanoyl)piperidin-4-yl)piperazin-1-yl)isoquinolin-1(2H)-one], the EC50 (mouse splenocytes [1]) was 0.111 µM and the IC50 (mouse splenocytes [2]) was > 30 µM.
